Laboratory results published in patent US4362743A, “Antibacterial monic acid esters” (Beecham Group Limited, priority 1980, dated 1982).
Converted amounts (≈) assume the structure as drawn.

Tests used:
Type in all cases: cell-based
M. suipneumoniae TAM 6N = assay: Anti-mycoplasmal activity in vitro MIC; conditions: Mesomycoplasma hyopneumoniae, TAM6N, 144 h; M. suipneumoniae TAM 6N; Friis broth, 0.9% agarose, 6 days 37° C.; read-out: M.I.C.
M. hyorhinis ATCC 23234 = assay: Anti-mycoplasmal activity in vitro MIC; conditions: Mesomycoplasma hyorhinis, ATCC23234, 144 h
M. dispar NCTC 10125 = assay: Anti-mycoplasmal activity in vitro MIC; conditions: 144 h
[1] = test system: M. suipneumoniae J2206/183b; assay: Anti-mycoplasmal activity in vitro MIC; conditions: Mesomycoplasma hyopneumoniae, 144 h; M. suipneumoniae J2206/183b; Friis broth, 0.9% agarose, 6 days 37° C.; read-out: M.I.C.
M. pneumoniae ATCC 15492 = assay: Anti-mycoplasmal activity in vitro MIC; conditions: Mycoplasmoides pneumoniae, ATCC15492, 144 h
M. hyorhinis ATCC 25021 = assay: Anti-mycoplasmal activity in vitro MIC; conditions: Mesomycoplasma hyorhinis, ATCC25021, 144 h
[2] = test system: M. suipneumoniae NCTC 10110; assay: Anti-mycoplasmal activity in vitro MIC; conditions: Mesomycoplasma hyopneumoniae, NCTC10110, 144 h; M. suipneumoniae NCTC 10110; Friis broth, 0.9% agarose, 6 days 37° C.; read-out: M.I.C.
M. suipneumoniae Str. 11 = assay: Anti-mycoplasmal activity in vitro MIC; conditions: Mesomycoplasma hyopneumoniae, STR.11, 144 h
M. suipneumoniae HK (2) = assay: Anti-mycoplasmal activity in vitro MIC; conditions: Mesomycoplasma hyopneumoniae, 144 h; M. suipneumoniae HK (2); Friis broth, 0.9% agarose, 6 days 37° C.; read-out: M.I.C.
[3] = test system: M. bovigenitalium ATCC 14173; assay: Anti-mycoplasmal activity in vitro MIC; conditions: 144 h; M. bovigenitalium ATCC 14173; Friis broth, 0.9% agarose, 6 days 37° C.; read-out: M.I.C.
[4] = test system: M. hyosynoviae ATCC 25591; assay: Anti-mycoplasmal activity in vitro MIC; conditions: 144 h
M. suipneumoniae LABER = assay: Anti-mycoplasmal activity in vitro MIC; conditions: Mesomycoplasma hyopneumoniae, 144 h
[5] = test system: M. suipneumoniae ATCC 25095; assay: Anti-mycoplasmal activity in vitro MIC; conditions: Mesomycoplasma hyopneumoniae, ATCC25095, 144 h
M. bovis NCTC 10131 = assay: microbe, parasite or virus in culture; conditions: NCTC10131, 144 h
M. suipneumoniae JF 435 = assay: Anti-mycoplasmal activity in vitro MIC; conditions: Mesomycoplasma hyopneumoniae, JF435, 144 h; M. suipneumoniae JF 435; Friis broth, 0.9% agarose, 6 days 37° C.; read-out: M.I.C.
M. suipneumoniae UCD 1 = assay: Anti-mycoplasmal activity in vitro MIC; conditions: Mesomycoplasma hyopneumoniae, UCD1, 144 h; M. suipneumoniae UCD 1; Friis broth, 0.9% agarose, 6 days 37° C.; read-out: M.I.C.
M. gallisepticum S6 = assay: Anti-mycoplasmal activity in vitro MIC; conditions: Mycoplasmoides gallisepticum, 144 h; M. gallisepticum S6; Friis broth, 0.9% agarose, 6 days 37° C.; read-out: M.I.C.
M. suipneumoniae MS16 = assay: Anti-mycoplasmal activity in vitro MIC; conditions: Mesomycoplasma hyopneumoniae, MS16, 144 h
M. suipneumoniae NB12 = assay: Anti-mycoplasmal activity in vitro MIC; conditions: Mesomycoplasma hyopneumoniae, NB12, 144 h
[6] = test system: M. suipneumoniae PW/C/210; assay: Anti-mycoplasmal activity in vitro MIC; conditions: Mesomycoplasma hyopneumoniae, 144 h

C/C(=C\C(=O)OCc1cccc(C=NO)c1)C[C@@H]1OC[C@H](C[C@@H]2O[C@H]2[C@@H](C)[C@H](C)O)[C@@H](O)[C@H]1O [Example 8, m-Hydroxyiminomethylbenzyl monate A]
MIC (M. suipneumoniae TAM 6N): 0.5 µg/mL (≈ 1.05 µM)
MIC (M. hyorhinis ATCC 23234): 0.25 µg/mL (≈ 0.524 µM)
MIC (M. dispar NCTC 10125): 0.1 µg/mL (≈ 0.209 µM)
MIC [1]: 0.5 µg/mL (≈ 1.05 µM)
MIC (M. pneumoniae ATCC 15492): 2.5 µg/mL (≈ 5.24 µM)
MIC (M. hyorhinis ATCC 25021): 0.25 µg/mL (≈ 0.524 µM)
MIC [2]: 0.5 µg/mL (≈ 1.05 µM)
MIC (M. suipneumoniae Str. 11): 0.25 µg/mL (≈ 0.524 µM)
MIC (M. suipneumoniae HK (2)): 0.5 µg/mL (≈ 1.05 µM)
MIC [3]: 0.025 µg/mL (≈ 0.0524 µM)
MIC [4]: 0.25 µg/mL (≈ 0.524 µM)
MIC (M. suipneumoniae LABER): 0.25 µg/mL (≈ 0.524 µM)
MIC [5]: 0.25 µg/mL (≈ 0.524 µM)
MIC (M. bovis NCTC 10131): ≤ 0.01 µg/mL
MIC (M. suipneumoniae JF 435): 0.5 µg/mL (≈ 1.05 µM)
MIC (M. suipneumoniae UCD 1): 0.5 µg/mL (≈ 1.05 µM)
MIC (M. gallisepticum S6): 5 µg/mL (≈ 10.5 µM)
MIC (M. suipneumoniae MS16): 0.25 µg/mL (≈ 0.524 µM)
MIC (M. suipneumoniae NB12): 0.25 µg/mL (≈ 0.524 µM)
MIC [6]: 0.25 µg/mL (≈ 0.524 µM)
